# Results as given in patent publication US20240384350A1, “METHODS OF TREATING CANCER WITH KINASE INHIBITORS” (BOARD OF REGENTS, THE UNIVERSITY OF TEXAS SYSTEM, priority 2021, published 2024).
# Legend:
# Assay in all cases: Ba/F3 drug screening, Cell Titer Glo, IC50 Mut/WT
# Format in all cases: cell-based
# [1] = target: T1, EGFR L747S (Homo sapiens, UniProt P00533, L747S); settings: PACC; L747S; Ba/F3; 72 hours
# T1 construct: expressed in transfected cells; host or cells: Ba/F3
# [2] = target: T2, EGFR S768I/T790M (Homo sapiens, UniProt P00533, S768I/T790M); settings: T790M-like-3S, 72 hours
# T2 construct: expressed in transfected cells; host or cells: Ba/F3
# Description: (§1) Data represent the ratio of the IC50 value for a given TKI for cells with a T790M-like-3S EGFR mutation to the IC50 value for cells with wildtype EGFR.
# (§2) Ba/F3 cell generation, drug screening, and IC50 approximations. Ba/F3 cells were obtained as a gift from Dr. Gordon Mills (MD Anderson Cancer Center), and maintained in RPMI (Sigma) containing 10% FBS, 1% penicillin/streptomycin, and 10 ng/ml recombinant mIL-3 (R&D Biosystems). To establish stable Ba/F3 cell lines, Ba/F3 cells were transduced with retroviruses containing mutant EGFR plasmids for 12-24 hours.
# (§3) After 48-72 hours of transduction, 2 μg/ml puromycin (Invitrogen) was added to Ba/F3 cell lines in complete RPMI. To select for EGFR positive cell lines, cells were stained with PE-EGFR (Biolegend) and sorted by FACS. After sorting, EGFR positive cells were maintained in RPMI containing 10% FBS, 1% penicillin/streptomycin, and 1 ng/ml EGF to support cell viability. Drug screening was performed as previously described^41,42. Shortly, cells were plated in 384-well plates (Greiner Bio-One) at 2000-3000 cells per well in technical triplicate. Seven different concentrations of TKIs or DMSO vehicle were added to reach a final volume of 40 μL per well. After 72 hours, 11 μL of Cell Titer Glo (Promega) was added to each well. Plates were incubated for a minimum of 10 minutes, and bioluminescence was determined using a FLUOstar OPTIMA plate reader (BMG LABTECH). Raw bioluminescence values were normalized to DMSO control treated cells, and values were plotted in GraphPad Prism. […] Drug screens were performed in technical triplicate on each plate and either duplicate or triplicate biological replicates.
# [3] = target: T3, EGFR L747P (Homo sapiens, UniProt P00533, L747P); settings: PACC; L747P; Ba/F3; 72 hours
# T3 construct: expressed in transfected cells; host or cells: Ba/F3
# [4] = target: T4, EGFR Ex19del L718Q (Homo sapiens, UniProt P00533, DEL746-750/L718Q); settings: PACC; Ex19del L718Q; Ba/F3; 72 hours
# T4 construct: expressed in transfected cells; host or cells: Ba/F3
# [5] = target: T5, EGFR S768dupSVD (Homo sapiens, UniProt P00533, DUP768-770); settings: Ex20, 72 hours
# T5 construct: expressed in transfected cells; host or cells: Ba/F3 cells, retroviral pBabe-Puro vector
# Description: Data represent the ratio of the IC50 value for a given TKI for cells with an ex20ins EGFR mutation to the IC50 value for cells with wildtype EGFR.
# as §2
# After 48-72 hours of transduction, 2 μg/ml puromycin (Invitrogen) was added to Ba/F3 cell lines in complete RPMI. To select for EGFR positive cell lines, cells were stained with PE-EGFR (Biolegend) and sorted by FACS. After sorting, EGFR positive cells were maintained in RPMI containing 10% FBS, 1% penicillin/streptomycin, and 1 ng/ml EGF to support cell viability. Drug screening was performed as previously described^41,42. Shortly, cells were plated in 384-well plates (Greiner Bio-One) at 2000-3000 cells per well in technical triplicate. Seven different concentrations of TKIs or DMSO vehicle were added to reach a final volume of 40 μL per well. After 72 hours, 11 μL of Cell Titer Glo (Promega) was added to each well. Plates were incubated for a minimum of 10 minutes, and bioluminescence was determined using a FLUOstar OPTIMA plate reader (BMG LABTECH). Raw bioluminescence values were normalized to DMSO control treated cells, and values were plotted in GraphPad Prism. […] Drug screens were performed in technical triplicate on each plate and either duplicate or triplicate biological replicates. […] Statistical differences between groups were determined by ANOVA as described in the figure legends.
# [6] = target: T6, EGFR L718Q T790M (Homo sapiens, UniProt P00533, L718Q/T790M); settings: T790M-like-3R, 72 hours
# T6 construct: expressed in transfected cells; host or cells: Ba/F3
# Description: Data represent the ratio of the IC50 value for a given TKI for cells with a T790M-like-3R EGFR mutation to the IC50 value for cells with wildtype EGFR.
# as §2
# After 48-72 hours of transduction, 2 μg/ml puromycin (Invitrogen) was added to Ba/F3 cell lines in complete RPMI. To select for EGFR positive cell lines, cells were stained with PE-EGFR (Biolegend) and sorted by FACS. After sorting, EGFR positive cells were maintained in RPMI containing 10% FBS, 1% penicillin/streptomycin, and 1 ng/ml EGF to support cell viability. […] Shortly, cells were plated in 384-well plates (Greiner Bio-One) at 2000-3000 cells per well in technical triplicate. Seven different concentrations of TKIs or DMSO vehicle were added to reach a final volume of 40 μL per well. After 72 hours, 11 μL of Cell Titer Glo (Promega) was added to each well. Plates were incubated for a minimum of 10 minutes, and bioluminescence was determined using a FLUOstar OPTIMA plate reader (BMG LABTECH). Raw bioluminescence values were normalized to DMSO control treated cells, and values were plotted in GraphPad Prism. […] Drug screens were performed in technical triplicate on each plate and either duplicate or triplicate biological replicates. […] Statistical differences between groups were determined by ANOVA as described in the figure legends.
# [7] = target: T7, EGFR E709A (Homo sapiens, UniProt P00533, E709A); settings: PACC; E709A; Ba/F3; 72 hours
# T7 construct: expressed in transfected cells; host or cells: Ba/F3
# [8] = target: T8, EGFR Ex19del G724S (Homo sapiens, UniProt P00533, DEL746-750/G724S); settings: PACC; Ex19del G724S; Ba/F3; 72 hours
# T8 construct: expressed in transfected cells; host or cells: Ba/F3
# Description: (§4) Data represent the ratio of the IC50 value for a given TKI for cells with a PACC EGFR mutation to the IC50 value for cells with wildtype EGFR.
# as §2, §3
# [9] = target: T9, EGFR V774M (Homo sapiens, UniProt P00533, V774M); settings: PACC; V774M; Ba/F3; 72 hours
# T9 construct: host or cells: Ba/F3
# Description: as §4, §2, §3
# [10] = target: T10, EGFR Ex19del L718V (Homo sapiens, UniProt P00533, DEL746-750/L718V); settings: PACC; Ex19del L718V; Ba/F3; 72 hours
# T10 construct: expressed in transfected cells; host or cells: Ba/F3
# Description: as §4, §2, §3
# [11] = target: T11, EGFR A763insLQEA (Homo sapiens, UniProt P00533, INS763LQEA); settings: Classical-Like, 72 hours
# T11 construct: expressed in transfected cells; host or cells: Ba/F3 cells, retroviral pBabe-Puro vector
# Description: (§5) Data represent the ratio of the IC50 value for a given TKI for cells with a classical-like EGFR mutation to the IC50 value for cells with wildtype EGFR.
# as §2
# (§6) After 48-72 hours of transduction, 2 μg/ml puromycin (Invitrogen) was added to Ba/F3 cell lines in complete RPMI. To select for EGFR positive cell lines, cells were stained with PE-EGFR (Biolegend) and sorted by FACS. After sorting, EGFR positive cells were maintained in RPMI containing 10% FBS, 1% penicillin/streptomycin, and 1 ng/ml EGF to support cell viability. […] Shortly, cells were plated in 384-well plates (Greiner Bio-One) at 2000-3000 cells per well in technical triplicate. Seven different concentrations of TKIs or DMSO vehicle were added to reach a final volume of 40 μL per well. After 72 hours, 11 μL of Cell Titer Glo (Promega) was added to each well. Plates were incubated for a minimum of 10 minutes, and bioluminescence was determined using a FLUOstar OPTIMA plate reader (BMG LABTECH). Raw bioluminescence values were normalized to DMSO control treated cells, and values were plotted in GraphPad Prism. […] Drug screens were performed in technical triplicate on each plate and either duplicate or triplicate biological replicates.
# [12] = target: T12, EGFR G719A L861Q (Homo sapiens, UniProt P00533, G719A/L861Q); settings: PACC; G719A L861Q; Ba/F3; 72 hours
# T12 construct: expressed in transfected cells; host or cells: Ba/F3
# [13] = target: T13, EGFR L718V (Homo sapiens, UniProt P00533, L718V); settings: PACC; L718V; Ba/F3; 72 hours
# T13 construct: expressed in transfected cells; host or cells: Ba/F3
# [14] = target: T14, EGFR A763insFQEA (Homo sapiens, UniProt P00533, INS763FQEA); settings: Classical-Like, 72 hours
# T14 construct: expressed in transfected cells; host or cells: Ba/F3 cells, retroviral pBabe-Puro vector
# Description: as §5, §2, §6
# [15] = target: T15, EGFR L858R T790M L792H (Homo sapiens, UniProt P00533, L792H/L858R/T790M); settings: T790M-like-3S, 72 hours
# T15 construct: expressed in transfected cells; host or cells: Ba/F3
# [16] = target: T16, EGFR S811F (Homo sapiens, UniProt P00533, S811F); settings: Classical-Like, 72 hours
# T16 construct: expressed in transfected cells; host or cells: Ba/F3 cells, retroviral pBabe-Puro vector (vector made by GeneScript from EGFR WT)
# [17] = target: T17, EGFR E709K G719S (Homo sapiens, UniProt P00533, E709K/G719S); settings: PACC; E709K G719S; Ba/F3; 72 hours
# T17 construct: expressed in transfected cells; host or cells: Ba/F3
# Description: as §4, §2, §3
# [18] = target: T18, EGFR G719A T790M (Homo sapiens, UniProt P00533, G719A/T790M); settings: T790M-like-3S, 72 hours
# T18 construct: expressed in transfected cells; host or cells: Ba/F3
# Description: as §1, §2, §3
# [19] = target: T19, EGFR S784F (Homo sapiens, UniProt P00533, S784F); settings: Classical-Like, 72 hours
# T19 construct: expressed in transfected cells; host or cells: Ba/F3 cells, retroviral pBabe-Puro vector (vector made by GeneScript from EGFR WT)
# [20] = target: T20, EGFR A767insASV (Homo sapiens, UniProt P00533, DUP767-769); settings: Ex20, 72 hours
# T20 construct: expressed in transfected cells; host or cells: Ba/F3 cells, retroviral pBabe-Puro vector
# [21] = target: T21, EGFR S768I/V769L (Homo sapiens, UniProt P00533, S768I/V769L); settings: PACC; S768I/V769L; Ba/F3; 72 hours
# T21 construct: host or cells: Ba/F3
# [22] = target: T22, EGFR L718Q (Homo sapiens, UniProt P00533, L718Q); settings: PACC; L718Q; Ba/F3; 72 hours
# T22 construct: expressed in transfected cells; host or cells: Ba/F3
# Description: as §4, §2, §3
# [23] = target: T23, EGFR L858R/T790M/C797S (Homo sapiens, UniProt P00533, C797S/L858R/T790M); settings: T790M-like-3R, 72 hours
# T23 construct: expressed in transfected cells; host or cells: Ba/F3
# [24] = target: T24, EGFR L858R T790M V843I (Homo sapiens, UniProt P00533, L858R/T790M/V843I); settings: T790M-like-3S, 72 hours
# T24 construct: expressed in transfected cells; host or cells: Ba/F3
# [25] = target: T25, EGFR V769L (Homo sapiens, UniProt P00533, V769L); settings: PACC; V769L; Ba/F3; 72 hours
# T25 construct: expressed in transfected cells; host or cells: Ba/F3
# [26] = target: T26, EGFR L858R L718Q (Homo sapiens, UniProt P00533, L718Q/L858R); settings: PACC; L858R L718Q; Ba/F3; 72 hours
# T26 construct: host or cells: Ba/F3
# [27] = target: T27, EGFR L861Q (Homo sapiens, UniProt P00533, L861Q); settings: Classical-Like, 72 hours
# T27 construct: expressed in transfected cells; host or cells: Ba/F3 cells, retroviral pBabe-Puro vector
smiles,measurement,setting,value
CNC(=O)CN1CCC(Oc2cc3c(Nc4cccc(Cl)c4F)ncnc3cc2OC)CC1 [Sapatinib],ratio of IC50 for cells with mutant EGFR to IC50 for cells with wildtype EGFR (Mut/WT),[1],0.005189
same,ratio of IC50 for cells with mutant EGFR to IC50 for cells with wildtype EGFR (Mut/WT),[2],54.78
same,ratio of IC50 for cells with mutant EGFR to IC50 for cells with wildtype EGFR (Mut/WT),[3],0.03076
same,ratio of IC50 for cells with mutant EGFR to IC50 for cells with wildtype EGFR (Mut/WT),[4],0.7162
same,ratio of IC50 for cells with mutant EGFR to IC50 for cells with wildtype EGFR (Mut/WT),[5],2.666
same,ratio of IC50 for cells with mutant EGFR to IC50 for cells with wildtype EGFR (Mut/WT),[6],54.78
same,ratio of IC50 for cells with mutant EGFR to IC50 for cells with wildtype EGFR (Mut/WT),[7],0.3243
same,ratio of IC50 for cells with mutant EGFR to IC50 for cells with wildtype EGFR (Mut/WT),[8],27.39
same,ratio of IC50 for cells with mutant EGFR to IC50 for cells with wildtype EGFR (Mut/WT),[9],0.05575
same,ratio of IC50 for cells with mutant EGFR to IC50 for cells with wildtype EGFR (Mut/WT),[10],0.08016
same,ratio of IC50 for cells with mutant EGFR to IC50 for cells with wildtype EGFR (Mut/WT),[11],0.004226
same,ratio of IC50 for cells with mutant EGFR to IC50 for cells with wildtype EGFR (Mut/WT),[12],0.04615
same,ratio of IC50 for cells with mutant EGFR to IC50 for cells with wildtype EGFR (Mut/WT),[13],1.264
same,ratio of IC50 for cells with mutant EGFR to IC50 for cells with wildtype EGFR (Mut/WT),[14],0.3137
same,ratio of IC50 for cells with mutant EGFR to IC50 for cells with wildtype EGFR (Mut/WT),[15],54.78
same,ratio of IC50 for cells with mutant EGFR to IC50 for cells with wildtype EGFR (Mut/WT),[16],0.006549
same,ratio of IC50 for cells with mutant EGFR to IC50 for cells with wildtype EGFR (Mut/WT),[17],0.01102
same,ratio of IC50 for cells with mutant EGFR to IC50 for cells with wildtype EGFR (Mut/WT),[18],54.78
same,ratio of IC50 for cells with mutant EGFR to IC50 for cells with wildtype EGFR (Mut/WT),[19],0.08508
same,ratio of IC50 for cells with mutant EGFR to IC50 for cells with wildtype EGFR (Mut/WT),[20],2.233
same,ratio of IC50 for cells with mutant EGFR to IC50 for cells with wildtype EGFR (Mut/WT),[21],0.2596
same,ratio of IC50 for cells with mutant EGFR to IC50 for cells with wildtype EGFR (Mut/WT),[22],2.03
same,ratio of IC50 for cells with mutant EGFR to IC50 for cells with wildtype EGFR (Mut/WT),[23],66.82
same,ratio of IC50 for cells with mutant EGFR to IC50 for cells with wildtype EGFR (Mut/WT),[24],49
same,ratio of IC50 for cells with mutant EGFR to IC50 for cells with wildtype EGFR (Mut/WT),[25],0.1992
same,ratio of IC50 for cells with mutant EGFR to IC50 for cells with wildtype EGFR (Mut/WT),[26],0.1961
same,ratio of IC50 for cells with mutant EGFR to IC50 for cells with wildtype EGFR (Mut/WT),[27],0.01265
